“And” between values parts separate entries of the source, which are not always exact repeats. Equal entries are not always repeated. Where two headings read alike, the source gives them in different places.
How the values were obtained:
PC-3 human cell line = experiment: Relative growth inhibition after 6 days; assay type: cell-based; conditions: for activity at 10 µM: Homo sapiens, read-out: No. of cells remaining expressed as a % of control
Experimental: (§1) All compounds were screened on a panel of normal and cancer human cell lines, including human prostate cancer cell lines, PC-3, DU-145, and LnCAP.
Cells (10^4 /well) were plated on 96 well plates with the following controls: no cells and toxic control (1×10^-3 M sodium dodecyl sulfate (SDS). The drug was diluted in ethanol and added directly to the wells. […] A solution (50 μl of 2,3-bis-(methoxy-4-nitro-5-sulfophenyl)-5-[(phenylamino)carbonyl]-2H-tetrazolium hydroxide (XTT), 1 mg/mL) in phosphate buffered saline (PBS, 100 mM) was added to each well, In the presence of viable cells, this colorless clear solution is enzymatically transformed to give a pink coloration, read at 450 nm using a microplate reader (Molecular Devices Thermomax). The inhibition of cell growth was measured by hemocytometer, counting cell viability. (Table I)

progestin receptors = conditions: background statement; cited from earlier work
glucocorticoid receptors = conditions: background statement; cited from earlier work
human androgen receptors [1] = molecular target: T1, human androgen receptors (Homo sapiens, UniProt P10275); experiment: Androgen activity of anti-androgens in CVI-3.9.2 cells (CAT activity); assay type: cell-based
T1 construct: expressed in transfected cells; host or cells: CV-1 monkey cells (clone CV1-3.9.2)
T1 sequence (P10275 whole entry): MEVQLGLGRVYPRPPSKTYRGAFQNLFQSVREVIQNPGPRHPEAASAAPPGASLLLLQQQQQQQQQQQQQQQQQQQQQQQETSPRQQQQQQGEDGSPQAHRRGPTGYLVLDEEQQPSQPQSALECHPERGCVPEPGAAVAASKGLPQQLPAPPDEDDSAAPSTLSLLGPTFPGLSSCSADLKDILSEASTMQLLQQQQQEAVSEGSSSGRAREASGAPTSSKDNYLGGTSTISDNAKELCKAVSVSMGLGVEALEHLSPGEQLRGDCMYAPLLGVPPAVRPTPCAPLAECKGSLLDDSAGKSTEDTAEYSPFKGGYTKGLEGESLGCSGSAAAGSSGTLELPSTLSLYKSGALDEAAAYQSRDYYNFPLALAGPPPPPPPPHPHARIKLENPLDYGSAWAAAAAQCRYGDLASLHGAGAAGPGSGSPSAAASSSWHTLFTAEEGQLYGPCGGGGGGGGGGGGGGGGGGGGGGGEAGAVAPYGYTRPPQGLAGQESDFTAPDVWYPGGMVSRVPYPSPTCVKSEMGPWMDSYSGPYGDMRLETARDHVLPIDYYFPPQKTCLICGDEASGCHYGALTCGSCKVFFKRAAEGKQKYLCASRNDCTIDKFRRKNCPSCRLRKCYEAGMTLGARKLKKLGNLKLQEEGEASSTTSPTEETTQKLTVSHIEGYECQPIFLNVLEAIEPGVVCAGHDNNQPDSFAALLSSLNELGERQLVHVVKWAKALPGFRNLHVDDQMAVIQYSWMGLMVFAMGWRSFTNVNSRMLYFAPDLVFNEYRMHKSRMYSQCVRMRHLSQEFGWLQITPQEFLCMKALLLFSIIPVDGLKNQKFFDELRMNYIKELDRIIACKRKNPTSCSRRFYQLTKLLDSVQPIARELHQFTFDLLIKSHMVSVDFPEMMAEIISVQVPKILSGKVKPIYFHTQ
Experimental: (§2) The androgenic and anti-androgenic activity of the current and novel compounds was tested in a specific assay described by Fuhrman et al. [J. Steroid Biochem. Molec. […] This assay uses CV-1 cells derived from monkeys transfected with human androgen receptors.

human androgen receptors [2] = molecular target: T1, human androgen receptors; experiment: Transactivation assay, anti-androgenic potency, CV1-3.9.2 cells; assay type: cell-based; conditions: stimulation with 0.1 nM testosterone
Experimental: as §2

Ovcar 3 Human Ovary = experiment: Inhibition of cell proliferation at 72 hours, Ovcar 3; assay type: cell-based; conditions: Ovcar 3, 72 hours
Experimental: as §1
(§3) Cells (10^4 /well) were plated on 96 well plates with the following controls: no cells and toxic control (1×10^-3 M sodium dodecyl sulfate (SDS). The drug was diluted in ethanol and added directly to the wells. Plates were incubated at 37° C. under 5% carbon dioxide in sterile air, in a humidified incubator for 72 hours. A solution (50 μl of 2,3-bis-(methoxy-4-nitro-5-sulfophenyl)-5-[(phenylamino)carbonyl]-2H-tetrazolium hydroxide (XTT), 1 mg/mL) in phosphate buffered saline (PBS, 100 mM) was added to each well, In the presence of viable cells, this colorless clear solution is enzymatically transformed to give a pink coloration, read at 450 nm using a microplate reader (Molecular Devices Thermomax). The inhibition of cell growth was measured by hemocytometer, counting cell viability. (Table I)

[3] = system: CHO Chinese Hamster Ovary; experiment: Inhibition of cell proliferation at 72 hours, CHO; assay type: cell-based; conditions: Cricetulus griseus
[4] = system: Molt-4 Human T-cell Leukemia; experiment: Inhibition of cell proliferation at 72 hours, Molt-4; assay type: cell-based; conditions: Molt-4, 72 hours
Experimental: as §1, §3

[5] = system: Ln CAP Human Prostate (with androgen receptors); experiment: Inhibition of cell proliferation at 72 hours, Ln CAP; assay type: cell-based; conditions: LNCaP
Experimental: as §1, §3

[6] = system: MCF-7/ADR Human Breast (adriamycin resistant); experiment: Inhibition of cell proliferation at 72 hours, MCF-7/ADR; assay type: cell-based; conditions: NCI/ADR-RES, MCF-7/ADR (adriamycin resistant)
Experimental: as §1, §3

[7] = system: PC-3 Human Prostate (few androgen receptors); experiment: Inhibition of cell proliferation at 72 hours, PC-3; assay type: cell-based; conditions: PC-3, 72 hours
Experimental: as §1, §3

[8] = system: HLF-1 Normal Lung Diploid; experiment: Inhibition of cell proliferation at 72 hours, HLF-1; assay type: cell-based; conditions: Homo sapiens, HLF1
Experimental: as §1, §3

[9] = system: DU-145 Human Prostate (receptor poor); experiment: Inhibition of cell proliferation at 72 hours, DU-145; assay type: cell-based; conditions: DU-145, 72 hours
Experimental: as §1, §3

[10] = system: panel of normal and cancer human cell lines; experiment: Cytotoxicity screen on panel of normal and cancer cell lines; assay type: cell-based
Experimental: as §1, §3

MCF-7 Human Breast = experiment: Inhibition of cell proliferation at 72 hours, MCF-7; assay type: cell-based; conditions: MCF7, MCF-7, 72 hours
Experimental: as §1, §3

[11] = system: NH DF Normal Dermal Fibroblast; experiment: Inhibition of cell proliferation at 72 hours, NH DF; assay type: cell-based; conditions: Homo sapiens, NHDF
Experimental: as §1, §3

L-1210 Mouse Leukemia = experiment: Inhibition of cell proliferation at 72 hours, L-1210; assay type: cell-based; conditions: L1210, L-1210, 72 hours
androgen receptors = conditions: background statement; cited from earlier work
[12] = 10^-5 M, cell density 10^4/well

CC1(C)C(=O)N(c2ccc(C#N)c(C(F)(F)F)c2)C(=S)N1CCc1c[nH]cn1 [BP-213]
activity at 10 µM (PC-3 human cell line; [12]): ~40%

CC(=O)O[C@]1(C(C)=O)CC[C@H]2[C@@H]3C=C(Cl)C4=CC(=O)[C@@H]5C[C@@H]5[C@]4(C)[C@H]3CC[C@@]21C [Cyproterone Acetate]
binding to progestin receptors (progestin receptors): binds to the glucocorticoid and progestin receptors | binding to glucocorticoid receptors (glucocorticoid receptors): binds to the glucocorticoid and progestin receptors

CC1(C)OCC(CN2C(=S)N(c3ccc(C#N)c(C(F)(F)F)c3)C(=N)C2(C)C)O1 (centres unmarked) [BP163, 4-[4,4-dimethyl-3-(2',2'-dimethyl-1',3'-dioxolane-4'-methyl)-5-imino-2-thioxo-1-imidazolidinyl]-2-trifluoromethyl-benzonitrile]
CAT Activity (human androgen receptors [1]; 1 μM): 2100 cpm | IC50 (human androgen receptors [2]): 0.217 µM

CC(=O)O[C@H]1C(=O)[C@]2(C)[C@@H](OC(=O)NCCN3C(=S)N(c4ccc(C#N)c(C(F)(F)F)c4)C(=O)C3(C)C)C[C@H]3OC[C@@]3(OC(C)=O)[C@H]2[C@H](OC(=O)c2ccccc2)[C@]2(O)C[C@H](OC(=O)[C@H](O)[C@@H](NC(=O)c3ccccc3)c3ccccc3)C(C)=C1C2(C)C [BP-196, 7-{imidazolidinyl-5",5"-dimethyl-4"-oxo-3"-[4"'-cyano-3'"-trifluoromethylphenyl-imidazolidinyl]-2"-thioxo-1"-ethylcarbamoxy}paclitaxel]
IC50 (Ovcar 3 Human Ovary): 0.05 µM | IC50 [3]: 8.76 µM | IC50 [4]: 0.147 µM | IC50 [5]: 0.131 µM | IC50 [6]: 10 µM | Observation (relative growth inhibition) (PC-3 human cell line; 10^-5 M, after 6 days, cell density 10^4/well): cytotoxic cell death | activity at 10 µM (PC-3 human cell line; [12]): ~100% | IC50 [7]: 0.0372 µM | IC50 [8]: 8.06 µM | IC50 [9]: 0.867 µM | toxicity vis-a-vis normal cells ([10]; normal cells): quite high | IC50 (MCF-7 Human Breast): 0.989 µM | IC50 [11]: 0.107 µM | IC50 (L-1210 Mouse Leukemia): 0.97 µM

C#CCN1C(=S)N(c2ccc(C#N)c(C(F)(F)F)c2)C(=O)C1(C)C [BP-199, 4-[4,4-dimethyl-3-(2'-propynyl)-5-oxo-2-thioxo-1-imidazolidinyl]-2-trifluoromethyl-benzonitrile]
IC50 (Ovcar 3 Human Ovary): > 100 µM | IC50 [3]: 12.8 µM | IC50 [4]: > 100 µM | IC50 [5]: 0.82 µM | IC50 [6]: 10 µM | activity at 10 µM (PC-3 human cell line; [12]): ~50% | IC50 [7]: 0.132 µM | IC50 (human androgen receptors [2]): 0.015 µM | IC50 [8]: > 100 µM | IC50 [9]: 85.1 µM | cytotoxicity in human prostate cancer lines containing at least some androgen receptors ([10]; human prostate cancer lines): most cytotoxic | cytotoxicity in a variety of other human transformed and normal cells ([10]; other human transformed and normal cells): low cytotoxicity | IC50 (MCF-7 Human Breast): 100 µM | IC50 [11]: > 100 µM | IC50 (L-1210 Mouse Leukemia): 11 µM

CC1(C)OCC(CN2C(=S)N(c3ccc(C#N)c(C(F)(F)F)c3)C(=O)C2(C)C)O1 (centres unmarked) [BP134, 4-[4,4-dimethyl-3-[2',2'-dimethyl-1',3'-dioxolane-4'-methyl)-5-oxo-2-thioxo-1-imidazolidinyl]-2-trifluoromethyl-benzonitrile]
CAT Activity (human androgen receptors [1]; 1 μM): 1600 cpm | IC50 (human androgen receptors [2]): 0.021 µM

C=CCN1C(=S)N(c2ccc(C#N)c(C(F)(F)F)c2)C(=O)C1(C)C [BP-82, 4-[4,4-dimethyl-5-oxo-3-(2'-propenyl)-2-thioxo-1-imidazolidinyl]-2-trifluoromethyl-benzonitrile]
CAT Activity (human androgen receptors [1]; 1 μM): 1300 cpm | IC50 (Ovcar 3 Human Ovary): 96.5 µM | IC50 [3]: 34.5 µM | IC50 [4]: 48.8 µM | IC50 [5]: 66 µM | IC50 [6]: 15.1 µM | activity at 10 µM (PC-3 human cell line; [12]): ~70% | cytostatic effect in PC-3 human cell line (PC-3 human cell line; PC-3, Table II): cytostatic effect | IC50 [7]: 31.5 µM | IC50 (human androgen receptors [2]): ~0.0065 µM | IC50 [8]: 39 µM | IC50 [9]: 13.9 µM | IC50 (MCF-7 Human Breast): 50 µM | IC50 [11]: 91.7 µM | IC50 (L-1210 Mouse Leukemia): 25 µM

C[C@]1(O)CC[C@H]2[C@@H]3CCC4=CC(=O)CCC4=C3C=C[C@@]21C [R1881, reference compound]
CAT Activity (human androgen receptors [1]): 5400 cpm and 5600 cpm and 6700 cpm

CC(C)(C)OC(=O)NCCN1C(=S)N(c2ccc(C#N)c(C(F)(F)F)c2)C(=O)C1(C)C [BP137, 4-[3-(2'-N-(t-butoxycarbonyl)-aminoethyl)-4,4-dimethyl-5-oxo-2-thioxo-1-imidazolidinyl]-2-trifluoromethyl-benzonitrile]
CAT Activity (human androgen receptors [1]; 1 μM): 2000 cpm | IC50 (human androgen receptors [2]): 0.02 µM

CC(O)(CS(=O)(=O)c1ccc(F)cc1)C(=O)Nc1ccc(C#N)c(C(F)(F)F)c1 (centres unmarked) [Casodex]
binding to androgen receptors (sufficiency for complete blockage) (androgen receptors): do not bind sufficiently to androgen receptors to achieve their complete blockage

CC1(C)C(=O)N(c2ccc(C#N)c(C(F)(F)F)c2)C(=S)N1CCN [BP138, 4-[3-(2'-aminoethyl) 4,4-dimethyl-5-oxo-2-thioxo-1-imidazolidinyl]-2-trifluoromethyl-benzonitrile]
CAT Activity (human androgen receptors [1]; 1 μM): 1600 cpm | IC50 (human androgen receptors [2]): 0.139 µM

CC(=O)NCCN1C(=S)N(c2ccc(C#N)c(C(F)(F)F)c2)C(=O)C1(C)C [BP139, 4-[3-(2'-N-acetylaminoethyl)-4,4-dimethyl-5-oxo-2-thioxo-1-imidazolidinyl]-2-trifluoromethyl-benzonitrile]
CAT Activity (human androgen receptors [1]; 1 μM): 1500 cpm | IC50 (human androgen receptors [2]): 0.239 µM

CC1(C)C(=O)N(c2ccc(C#N)c(C(F)(F)F)c2)C(=S)N1CCCCO [RU59063, 4-[4,4-dimethyl-3-(4-hydroxybutyl)-5-oxo-2-thioxo-1-imidazolidinyl]-2-trifluoromethyl-benzonitrile, reference compound]
CAT Activity (human androgen receptors [1]; 1 μM): 2600 cpm | IC50 (human androgen receptors [2]): 0.023 µM

CC(C)(C)OC(=O)NCCN1C(=S)N(c2ccc(C#N)c(C(F)(F)F)c2)C(=N)C1(C)C [BP136, 4-[3-(2'-(N-t-butoxycarbonyl)-aminoethyl)-4,4-dimethyl-5-imino-2-thioxo-1-imidazolidinyl]-2-trifluoromethyl-benzonitrile]
CAT Activity (human androgen receptors [1]; 1 μM): 1800 cpm | IC50 (human androgen receptors [2]): 0.2 µM

CC1(C)C(=O)N(c2ccc(C#N)c(C(F)(F)F)c2)C(=S)N1CC(O)CO (centres unmarked) [BP135, 4-[3-(2',3'-dihydroxypropyl)-4,4-dimethyl-5-oxo-2-thioxo-1-imidazolidinyl]-2-trifluoromethyl-benzonitrile]
CAT Activity (human androgen receptors [1]; 1 μM): 1900 cpm | IC50 (human androgen receptors [2]): 0.158 µM
